# Test results: patent US9173876B2, “Preparation and therapeutic applications of (2S,3R)-N-2-((3-pyridinyl)methyl)-1-azabicyclo[2.2.2]oct-3-yl)-3,5-difluorobenzamide” (Targacept, Inc., priority 2009, dated 2015)
# Tests used:
# [1] = cited from earlier work
# [2] = test system: STZ rat model of diabetic neuropathy; test: Streptozotocin (STZ)-induced diabetic neuropathy, Von Frey allodynia; type: in vivo; details: 150 mg/kg i.p.
# Method: Diabetes was induced by a 0.5 ml injection of streptozotocin (60 mg/kg) dissolved in citrate buffer (pH=6) into the tail vein of each rat. The development of diabetes was confirmed by measuring the blood glucose levels (BGL) of all animals on study day 3 (BGL>300 mg/dL). […] These animals were tested again for their BGL at study day 23.
# (2S,3R)—N-2-((3-pyridinyl)methyl)-1-azabicyclo[2.2.2]oct-3-yl)-3,5-difluorobenzamide (0.1, 1 or 10 mg/kg p.o.) was administered as a solution of the hydrochloride salt in water once daily starting on study day 14 or study day 16 and continuing through study day 21 or 23, respectively. The control article gabapentin (in 0.9% saline, 150 mg/kg i.p.) was only administered on allodynia test days. Test item, vehicle or control article administration was based on evaluation of allodynia on study day 14. If allodynia was not present on study day 14, the animal was evaluated again at study day 16. Pain response was measured either on study days 14 and 21 or 16 and 23, 30 minutes after Test Item administration.
# For the allodynia assessments, Von Frey filaments were used according to the methods of Chaplan and colleagues (1994). Briefly, the rats were placed in an enclosure and positioned on a metal mesh surface, but allowed to move freely. The rats' cabins were covered with red cellophane to diminish environmental distributions. The test began after cessation of exploratory behavior.
# When the tip of a Von Frey fiber of given length and diameter was pressed against the skin at right angles, the force of application increases as long as the researcher continued to advance the probe until the fiber bent. After the fiber bent, the probe was advanced, causing the fiber to bend more, but without additional force being applied. The animal would indicate sensation by pulling back its paw. In the absence of a paw withdrawal response to the initially selected filament, a stronger stimulus was presented: in the event of paw withdrawal, the next weaker stimulus was chosen. In this fashion, the resulting pattern of positive and negative responses was used to determine the paw withdrawal threshold.
# The set of Von Frey monofilaments provide an approximate logarithmic scale of actual force and a linear scale of perceived intensity. Below is a table showing the force (g) and its corresponding size of monofilaments.
# All normally distributed data are presented as means±SEM, as well as the animals' individual values followed by a student T-test (Software: Microsoft® Excel). A p value<0.05 is considered to represent a significant difference. Due to the non-normal distribution of the allodynia data, descriptions of those data are provided as both mean (+SEM) and median values in order to represent their imprecise nature and skewed distribution.
# [3] = Aqueous solubility (salt screen); details: target 10 mg/ml at 25° C. unbuffered
# db/db mouse = test: Murine model of type 2 diabetes mellitus (db/db mouse); type: in vivo; details: MLA 3 mg/kg daily by gavage with 1.0 mg/kg test article
# From the text: The db/db mouse, a well established model of type 2 diabetes mellitus, is a leptin-deficient mutant that expresses an obese phenotype and also commonly expresses metabolic symptoms including hyperglycemia, hyperlipidemia and hyperinsulinemia (Halaas et al., 1995 and Lee et al., 1996). This experimental animal model of diabetes was employed in a study designed to determine the effects of (2S,3R)—N-2-((3-pyridinyl)methyl)-1-azabicyclo[2.2.2]oct-3-yl)-3,5-difluorobenzamide on body mass and several additional metabolic parameters.
# In this study, (2S,3R)—N-2-((3-pyridinyl)methyl)-1-azabicyclo[2.2.2]oct-3-yl)-3,5-difluorobenzamide was repeatedly administered orally (via gavage) at 1.0 mg/kg once daily starting from the age of approximately 3 weeks and continuing throughout the 7-week study. Nondiabetic heterozygote littermate mice (db/+; designated “Db”) were used as controls. Body weight and food intake were determined twice weekly. The α7 antagonist methyllycaconitine (MLA) was also given concurrently via gavage at 3 mg/kg daily to selected cohorts of db/db (designated “db”) or db/+mice. At the end of the 7-week dosing regimen, total growth rates (overall body weight gain) and average daily food intake were calculated. In addition, glucose levels were assessed in mice fasted overnight. Furthermore, blood sample analytes from mice fasted overnight were collected for measurements of tumor necrosis factor-a (TNF-α), triglycerides and glycosylated hemoglobin (HbA1c). All data are expressed as mean±SEM. For each parameter investigated, differences among all groups were compared by one-way ANOVA with post-hoc Neuman-Keuls multiple comparison test.
# CD-1 mice = test: Formalin test; type: in vivo, mouse; details: positive control, 5 mg/kg s.c.
# Method: Subjects (adult male CD-1 mice (Charles River, Raleigh, N.C.) weighing approximately 20-25 grams) were removed from their home cage and weighed, then placed in a clear Plexiglas™ observation box for an acclimation period of 20-30 minutes. Mice were then removed from the observation chambers and (2S,3R)—N-2-((3-pyridinyl)methyl)-1-azabicyclo[2.2.2]oct-3-yl)-3,5-difluorobenzamide (as the hydrochloride salt in 0.9% saline) (1, 3 or 10 mg/kg s.c. (calculated with respect to the free base)), morphine (5 mg/kg; s.c.) or 0.9% saline vehicle was administered subcutaneously in a volume of 1 mL/kg. Mice were then returned to the chamber for the predetermined pretreatment time of 30 minutes for (2S,3R)—N-2-((3-pyridinyl)methyl)-1-azabicyclo[2.2.2]oct-3-yl)-3,5-difluorobenzamide and morphine.
# The subject's assigned paw was grasped gently and formalin solution was injected into the paw intra-dermally in the middle on the dorsal side. Once injected, the subject was immediately returned to its observation chamber and a timer was started to mark the beginning of Phase I. Each subject was videotaped for the entire 40-minute session. […] The time spent licking during that 1 min interval was recorded, and the presence or absence of paw favoring was noted.
# For data analyses, phase I of the test was defined as 0 to 5 minutes after formalin injection, and phase II was defined as 20 to 40 minutes after formalin injection. The time spent licking during the 1 minute intervals during those time frames was recorded and graphed as mean±S.E.M. For comparisons across treatment groups, 1-way analyses of variance (ANOVAs) were performed for each phase of the session with treatment as the […] variable. Post-hoc analyses were performed when appropriate to determine specific group differences.
# Sprague-Dawley rats = test: Complete Freund's adjuvant (CFA)-induced thermal hyperalgesia; type: in vivo, rat; details: reference standard, 3 mg/kg s.c., 1 hour after dosing
# From the text: Briefly, adult male Sprague-Dawley rats (BioLasco, Taiwan) weighing 180±20 g on receipt were randomly assigned to treatment groups of n=8 per group. […] A subject was placed within a plastic box atop an elevated glass floor and a light beam located under the glass floor was directed at the plantar surface of the right hind paw. The time required for the animal to withdraw the paw from the thermal stimulus was automatically recorded. The intensity of the light was adjusted to evoke an average group baseline latency from 12-14 seconds (pre-CFA) and a cut-off latency of 20 seconds was imposed. The latency for paw withdrawal was obtained for each rat and defined as the heat pain threshold.
# Test substance, morphine and vehicle were administered by subcutaneous (s.c.) injection at time 0. The post-treatment level of thermal hyperalgesia was then measured at 60 minutes post-treatment. One-way ANOVA followed by Dunnett's test was applied for comparison between test substance treated groups and vehicle control group. Activity was considered significant at the P<0.05 level.
structure (smiles),measurement,setting,value
O=S(=O)(O)c1ccccc1 [Benzene sulfonic acid],LogP,[1],0.47
O=C(O)c1ccc2ccccc2c1O [1-Hydroxy-2-Naphthoic acid],LogP,[1],3.29
O=C(O)/C=C\C(=O)O [Maleic acid],LogP,[1],−0.01
Cc1ccc(S(=O)(=O)O)cc1 [p-Toluene sulfonic acid],LogP,[1],0.93
O=C(O)CNC(=O)c1ccccc1 [Hippuric acid],LogP,[1],0.31
O=C(O)[C@H](O)[C@@H](O)[C@H](O)[C@H](O)CO [D-Gluconic acid],LogP,[1],−3.18
"NCC1(CC(=O)O)CCCCC1 [gabapentin, reference compound]","Paw withdrawal force post treatment, median",[2]; study days 14/16,60 g
same,"Paw withdrawal force post treatment, mean±SEM","[2]; study days 14/16, pre treatment 22.77±3.77 g, vehicle 26.61±4.41 g",45.62 ± 4.24 g
same,"Paw withdrawal force post treatment, median",[2]; study days 21/23,60 g
same,"Paw withdrawal force post treatment, mean±SEM","[2]; study days 21/23, pre treatment 28.23±4.91 g, vehicle 20.46±3.31 g",50.88 ± 4.12 g
same,Tactile allodynia (Von Frey),"[2]; positive control, all treatment days, vs pretreatment and vehicle, p<0.01",reversed the tactile allodynia significantly
O=C(O)/C=C/C(=O)O [Fumaric acid],LogP,[1],−0.01
CCC(=O)O [Propionic acid],LogP,[1],0.25
N[C@@H](CC(=O)O)C(=O)O [L-Aspartic acid],LogP,[1],−0.67
O=C(N[C@@H]1C2CCN(CC2)[C@H]1Cc1cccnc1)c1cc(F)cc(F)c1.O=C(O)/C=C/C(=O)O [Fumarate mono salt],Aqueous Solubility,[3],>10000 µg/mL
O=C(N[C@@H]1C2CCN(CC2)[C@H]1Cc1cccnc1)c1cc(F)cc(F)c1.O=P(O)(O)O [Phosphate mono salts],Aqueous Solubility,[3],>10000 µg/mL
Cl.O=C(N[C@@H]1C2CCN(CC2)[C@H]1Cc1cccnc1)c1cc(F)cc(F)c1 [Hydrochloride mono salts],Aqueous Solubility,[3],>10000 µg/mL
"CCN1C[C@]2(COC(=O)c3ccccc3N3C(=O)C[C@H](C)C3=O)CC[C@H](OC)[C@@]34[C@@H]5C[C@H]6[C@H](OC)[C@@H]5[C@](O)(C[C@@H]6OC)[C@@](O)([C@@H](OC)[C@H]23)[C@@H]14 [MLA, methyllycaconitine, reference compound]",Weight gain on co-administration of MLA with the difluorobenzamide,db/db mouse; FIG. 15,failed to show the reduced weight gain
same,Daily average food consumption on co-administration of MLA with the difluorobenzamide,db/db mouse; FIG. 16,failed to show the reduced daily average food consumption
same,Reversal of the fasting plasma glucose effect by co-administration of MLA,db/db mouse; FIG. 17,not reversed
same,Effect of MLA co-administration on the reduction in glycosylated HbA1c,db/db mouse; FIG. 18,attenuated
same,Effect of MLA co-administration on the TNF alpha reduction,db/db mouse; FIG. 19,inhibited
same,Effect of MLA co-administration on the reduction in triglycerides,db/db mouse; FIG. 20,not attenuated
"CN1CC[C@]23c4c5ccc(O)c4O[C@H]2[C@@H](O)C=C[C@H]3[C@H]1C5 [morphine, reference compound]","Time spent licking, phase I and phase II",CD-1 mice,efficacious in both phases of the test
same,Analgesic effect on CFA-induced thermal hyperalgesia,Sprague-Dawley rats,significant analgesic activity
